According to ChEMBL document CHEMBL5331119, “Basic Nitrogen (BaN) Is a Key Property of Antimalarial Chemical Space” (J Med Chem, 2023):

Assays:
Plasmodium falciparum [1] = assay: Antiplasmodial activity against Plasmodium falciparum 3D7; format: functional, organism-based
[2] = target: human dihydroorotate dehydrogenase (DHODH), mitochondrial (Homo sapiens, UniProt Q02127); assay: in vitro
Description: Inhibition of human DHODH

Plasmodium falciparum [3] = assay: Antiplasmodial activity against Plasmodium falciparum NF54 incubated for 48 hrs by lactate dehydrogenase assay; format: functional, organism-based; conditions: NF54, 48 h
Plasmodium falciparum [4] = assay: Antimalarial activity against Plasmodium falciparum FcB1; format: functional, organism-based
Plasmodium falciparum [5] = assay: Antiplasmodial activity against Plasmodium falciparum NF54 assessed as inhibition of parasite growth by microdilution analysis; format: functional, organism-based
Plasmodium falciparum [6] = assay: Antiplasmodial activity against Plasmodium falciparum K1 assessed as inhibition of parasite growth by microdilution analysis; format: functional, organism-based

Chain of human dihydroorotate dehydrogenase (DHODH), mitochondrial (Q02127 whole entry): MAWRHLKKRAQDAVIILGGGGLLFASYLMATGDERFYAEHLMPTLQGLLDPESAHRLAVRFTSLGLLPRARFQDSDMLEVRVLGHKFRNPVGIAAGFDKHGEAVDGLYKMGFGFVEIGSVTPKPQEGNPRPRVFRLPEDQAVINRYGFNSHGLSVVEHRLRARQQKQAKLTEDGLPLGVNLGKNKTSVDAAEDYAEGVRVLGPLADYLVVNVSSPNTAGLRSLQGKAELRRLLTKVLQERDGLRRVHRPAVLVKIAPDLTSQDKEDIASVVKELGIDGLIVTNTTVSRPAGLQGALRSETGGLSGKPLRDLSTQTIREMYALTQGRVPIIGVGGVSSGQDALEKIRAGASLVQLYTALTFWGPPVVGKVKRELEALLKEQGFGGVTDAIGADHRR

Compound `CCOC(=O)c1[nH]c(C)c(Cc2ccc(C(F)(F)F)nc2)c1C` has an EC50 (Plasmodium falciparum [1]) of 9 nM and an IC50 [2] of over 100 µM.

In the case of `Cc1[nH]c(C(=O)NC2CC2)c(C)c1Cc1ccc(C(F)(F)F)nc1`, the IC50 [2] is reported as over 100 µM.

For `CCOC(=O)c1[nH]c(C)c(Cc2ccc(C(F)(F)F)cc2)c1C`, the EC50 (Plasmodium falciparum [1]) was 61 nM and the IC50 [2] was over 100 µM.

Compound `CC(=O)N1CCN(c2nc3cc(Cl)ccc3n2Cc2ccccc2)CC1` has an IC50 (Plasmodium falciparum [3]) of over 1 µM.

`C[C@H]1[C@H](C)CC[C@]2(C(=O)O)CC[C@]3(C)C(=CC[C@@H]4[C@@]5(C)CC[C@H](O)C(C)(C)[C@@H]5CC[C@]43C)[C@H]12` [URSOLIC ACID] was tested, and the IC50 (Plasmodium falciparum [4]) was 52.9 µM.

In the case of `CCOC(=O)c1[nH]c(C)c(Cc2ccc(OCC)cc2)c1C`, the EC50 (Plasmodium falciparum [1]) is reported as 230 nM and the IC50 [2] is reported as over 100 µM.

`O=C1CN(c2nc3cc(Cl)ccc3n2Cc2ccccc2)CCN1` was tested, and the IC50 (Plasmodium falciparum [3]) was over 1 µM.

`CC[C@H]1OC(=O)[C@H](C)[C@@H](O[C@H]2C[C@@](C)(OC)[C@@H](O)[C@H](C)O2)[C@H](C)[C@@H](O[C@@H]2O[C@H](C)C[C@H](N(C)C)[C@H]2O)[C@](C)(O)C[C@@H](C)CN(C)[C@H](C)[C@@H](O)[C@]1(C)O` [AZITHROMYCIN] showed an IC50 (Plasmodium falciparum [1]) of 2650 nM.

`Cc1ccc(S(=O)(=O)N2CCN(c3nc4cc(Cl)ccc4n3Cc3ccccc3)CC2)cc1` showed an IC50 (Plasmodium falciparum [3]) of 5.26 µM.

With `Cc1c(Cc2cnc(C(F)(F)F)nc2)c[nH]c1C(=O)NC1CC1` the IC50 [2] was over 100 µM.

In the case of `CCN(CC)CCCC(C)Nc1cccc2cc(Cl)ccc12` (stereo not drawn), the IC50 (Plasmodium falciparum [5]) is reported as 3000 nM and the IC50 (Plasmodium falciparum [6]) is reported as 3000 nM.

`C[C@H]1[C@H](C)CC[C@]2(C(=O)NCCCN3CCN(CCCNCc4ccc(O)cc4)CC3)CC[C@]3(C)C(=CC[C@@H]4[C@@]5(C)CC[C@H](O)C(C)(C)[C@@H]5CC[C@]43C)[C@H]12` (single isomer, unassigned) showed an IC50 (Plasmodium falciparum [4]) of 0.08 µM.

For `CCN(CC)CCCC(C)Cc1ccnc2cc(Cl)ccc12` (stereo not drawn), the IC50 (Plasmodium falciparum [5]) was 3000 nM and the IC50 (Plasmodium falciparum [6]) was 3000 nM.
